Values joined by “and” are separate entries in the source; they are usually repeats but may differ in a detail not shown here. Equal values may be shown once.
System: Rattus norvegicus
[1] = reproduction developmental, duration: 70 days, oral, gavage, M, Crl:CD(SD), generation: P0, P0: Whole Body: Terminal Body Weight, Absolute
[2] = reproduction developmental, duration: 84 days, oral, gavage, M, Crl:CD(SD), generation: P0, P0: Seminal Vesicle: Seminal Vesicle Weight, Absolute + P0: Seminal Vesicle: Seminal Vesicle Weight, Relative + P0: Whole Body: Clinical …
[3] = reproduction developmental, duration: 84 days, oral, gavage, M, Crl:CD(SD), generation: P0, P0: Whole Body: Body Weight Change + P0: Whole Body: Terminal Body Weight, Absolute
[4] = reproduction developmental, duration: 131 days, oral, gavage, F, Crl:CD(SD), generation: P0, P0: Uterus: Uterus Weight, Absolute + P0: Uterus: Uterus Weight, Relative + P0: Whole Body: Clinical Observations
[5] = reproduction developmental, duration: 131 days, oral, gavage, F, Crl:CD(SD), generation: P0, P0: Whole Body: Body Weight Change + P0: Whole Body: Body Weight, Absolute + P0: Whole Body: Mortality
[6] = reproduction developmental, duration: 131 days, oral, gavage, M/F, Crl:CD(SD), generation: F1, F1: Kidney: Kidney Abnormalities + F1: Whole Body: Clinical Observations + F1: Whole Body: Dams with Liveborn Pups + F1: Whole Body: …
[7] = reproduction developmental, duration: 131 days, oral, gavage, M/F, Crl:CD(SD), generation: F1, F1: Whole Body: Pup Weight Relative to Litter
[8] = reproduction developmental, oral, gavage, F, Sprague-Dawley, generation: P0, P0: Developmental: Uterus: Implantation + P0: Developmental: Whole Body: No. Male Pups per No. of Pups Sexed + P0: Endocrine: Pituitary: …
[9] = reproduction developmental, oral, gavage, F, Sprague-Dawley, generation: P0, P0: Developmental: Uterus: Implantation + P0: Developmental: Whole Body: No. Male Pups per No. of Pups Sexed + P0: General Toxicity: Whole …
[10] = reproduction developmental, oral, gavage, M/F, Crl:CD(SD), generation: P0, P0: Reproductive: Whole Body: Gestation Index
[11] = reproduction developmental, oral, gavage, M, Crl:CD(SD), generation: P0, P0: General Toxicity: Whole Body: Necropsy Appeared Normal + P0: Nervous: CNS: Latency to Mount
[12] = reproduction developmental, oral, gavage, M, Sprague-Dawley, generation: P0, P0: General Toxicity: Whole Body: Body Weight Change + P0: General Toxicity: Whole Body: Clinical Observations + P0: General Toxicity: Whole…
[13] = short-term, duration: 28 days, oral, gavage, F, Crl:CD(SD), Liver: Liver Weight, Relative + Liver: Liver, Enlarged + Teeth: Incisors, Discolored
[14] = short-term, duration: 28 days, oral, gavage, F, Crl:CD(SD), Whole Body: Dystocia
[15] = short-term, duration: 28 days, oral, gavage, M/F, Crl:CD(SD), Adrenal: Adrenal Cortex Histopathology + Blood: Chloride (CL), Blood + Blood: Globulin (G), Blood + Blood: Potassium (K), Blood + Blood: …
[16] = short-term, duration: 28 days, oral, gavage, M/F, Crl:CD(SD), Whole Body: Body Weight Change + Whole Body: Body Weight, Absolute
[17] = short-term, duration: 28 days, oral, gavage, M, Crl:CD(SD), Teeth: Incisors, Discolored + Teeth: Teeth, Mottled
[18] = subchronic, duration: 90 days, oral, gavage, F, Crl:CD(SD), Blood: Activated Partial Thromboplastin Time (APTT) + Blood: Cholesterol (CHOL), Total + Blood: Fluoride (Plasma) + Blood: Hematocrit (HCT…
[19] = subchronic, duration: 90 days, oral, gavage, F, Crl:CD(SD), Blood: Activated Partial Thromboplastin Time (APTT) + Blood: Hematocrit (HCT) + Blood: Hemoglobin (HGB) + Blood: Red Blood Cell (RBC) + …
[20] = subchronic, duration: 90 days, oral, gavage, F, Crl:CD(SD), Blood: Cholesterol (CHOL), Total + Kidney: Kidney Weight, Absolute + Kidney: Kidney Weight, Relative + Kidney: Kidney Weight, Relative to …
[21] = subchronic, duration: 90 days, oral, gavage, F, Crl:CD(SD), Blood: Fluoride (Plasma), Recovery + Blood: Inorganic Phosphorous (PHOS) + Calcium (CA) + Kidney: Blood Urea Nitrogen (BUN), Blood + Kidney…
[22] = subchronic, duration: 90 days, oral, gavage, F, Crl:CD(SD), General Toxicity: Whole Body: Body Weight Change + General Toxicity: Whole Body: Clinical Observations + General Toxicity: Whole Body: …
[23] = subchronic, duration: 90 days, oral, gavage, F, Crl:CD(SD), Hematologic: Blood: Activated Partial Thromboplastin Time (APTT) + Hematologic: Blood: Hematocrit (HCT) + Hematologic: Blood: Hemoglobin (…
[24] = subchronic, duration: 90 days, oral, gavage, F, Crl:CD(SD), Kidney: Kidney Weight, Absolute + Liver: Liver Histopathology + Liver: Liver Weight, Absolute + Renal: Urinalysis, Unspecified
[25] = subchronic, duration: 90 days, oral, gavage, F, Crl:CD(SD), Other Systems: Eye: Ophthalmology + Other Systems: Nasal Cavity: Nasal Cavity/Tubinates Inflammation, Chronic, Focal/Multifocal + Other …
[26] = subchronic, duration: 90 days, oral, gavage, F, Crl:CD(SD), Pancreas: Pancreas Histopathology
[27] = subchronic, duration: 90 days, oral, gavage, F, Sprague-Dawley, Hematologic: Blood: Activated Partial Thromboplastin Time (APTT) + Hematologic: Blood: Hematocrit (HCT) + Hematologic: Blood: Hemoglobin (…
[28] = subchronic, duration: 90 days, oral, gavage, M, Crl:CD(SD), Blood: Activated Partial Thromboplastin Time (APTT) + Blood: Albumin/Globulin (A/G) Ratio + Blood: Fluoride (Plasma) + Blood: Hematocrit (…
[29] = subchronic, duration: 90 days, oral, gavage, M, Crl:CD(SD), Blood: Activated Partial Thromboplastin Time (APTT) + Blood: Hematocrit (HCT) + Blood: Hemoglobin (HGB) + Blood: Red Blood Cell (RBC) + …
[30] = subchronic, duration: 90 days, oral, gavage, M, Crl:CD(SD), Blood: Fluoride (Plasma), Recovery + Blood: Hematocrit (HCT) + Blood: Hemoglobin (HGB) + Liver: Liver, Biliary Hyperplasia + Liver: Liver, …
[31] = subchronic, duration: 90 days, oral, gavage, M, Crl:CD(SD), Blood: Inorganic Phosphorous (PHOS) + Blood: Potassium (K), Blood + Kidney: Blood Urea Nitrogen (BUN), Blood + Kidney: Kidney Weight, …
[32] = subchronic, duration: 90 days, oral, gavage, M, Crl:CD(SD), Blood: Inorganic Phosphorous (PHOS), Blood + Blood: Potassium (K), Blood + Epididymis: Epididymis Weight, Relative + Kidney: Blood Urea …
[33] = subchronic, duration: 90 days, oral, gavage, M, Crl:CD(SD), Blood: Total Protein (TP), Blood + Kidney: Kidney Histopathology + Kidney: Kidney Weight, Absolute + Liver: Total Bilirubin (TBILI), Blood…
[34] = subchronic, duration: 90 days, oral, gavage, M, Crl:CD(SD), General Toxicity: Whole Body: Body Weight Change + General Toxicity: Whole Body: Clinical Observations + General Toxicity: Whole Body: …
[35] = subchronic, duration: 90 days, oral, gavage, M, Crl:CD(SD), Hematologic: Blood: Activated Partial Thromboplastin Time (APTT) + Hematologic: Blood: Hematocrit (HCT) + Hematologic: Blood: Hemoglobin (…
[36] = subchronic, duration: 90 days, oral, gavage, M, Sprague-Dawley, Hematologic: Blood: Activated Partial Thromboplastin Time (APTT) + Hematologic: Blood: Hematocrit (HCT) + Hematologic: Blood: Hemoglobin (…

OCCC(F)(F)C(F)(F)C(F)(F)C(F)(F)C(F)(F)C(F)(F)F [2-(Perfluorohexyl)ethanol]
250 mg/kg-day: LEL [1] | NEL (reproduction developmental, duration: 84 days, oral, gavage, M, Crl:CD(SD), generation: P0, P0: Epididymis: Epididymis Histopathology + P0: Epididymis: Epididymis Weight, Absolute + P0: Epididymis: Epididymis Weight, Relative + P0: …) | LEL [3] | NEL (reproduction developmental, duration: 131 days, oral, gavage, F, Crl:CD(SD), generation: P0, P0: Bladder: Urinary Bladder Histopathology + P0: Kidney: Kidney Histopathology + P0: Lung: Lung Histopathology + P0: Ovary: Ovary …) | LEL [5] | LEL [6] | NEL (reproduction developmental, duration: 131 days, oral, gavage, M/F, Crl:CD(SD), generation: F1, F1: Whole Body: Dams with Stillborn Pups + F1: Whole Body: Live Pups Born + F1: Whole Body: Surviving Pups Per Litter) | NOAEL (reproduction developmental, oral, gavage, F, Sprague-Dawley, generation: P0, P0: Endocrine: Pituitary: Pituitary Gland Histopathology + P0: Endocrine: Pituitary: Pituitary Gland Weight, Absolute + P0: Endocrine: …) | NEL (subchronic, duration: 90 days, oral, gavage, F, Crl:CD(SD), Adrenal: Adrenal Gland Weight, Absolute + Adrenal: Adrenal Gland Weight, Relative + Blood: Basophils + Blood: Calcium (CA), Blood + Blood: …) | LEL [21] | NEL (subchronic, duration: 90 days, oral, gavage, F, Crl:CD(SD), Blood: Inorganic Phosphorous (PHOS) + Blood: Triglycerides (TRIG) + Calcium (CA) + Kidney: Blood Urea Nitrogen (BUN), Blood + Kidney: …) | LOAEL [25] | LEL [26] | NOAEL (subchronic, duration: 90 days, oral, gavage, F, Sprague-Dawley, Other Systems: Tooth: Tooth Discoloration + Other Systems: Tooth: Tooth Discoloration, Recovery + Other Systems: Tooth: Tooth Findings, …) | NEL (subchronic, duration: 90 days, oral, gavage, M, Crl:CD(SD), Adrenal: Adrenal Gland Weight, Absolute + Adrenal: Adrenal Gland Weight, Relative + Blood: Basophils + Blood: Calcium (CA), Blood + Blood: …) | LEL [30] | LEL [33] | LOAEL (subchronic, duration: 90 days, oral, gavage, M, Crl:CD(SD), Immune: Blood: Basophils + Immune: Blood: Eosinophils + Immune: Blood: Lymphocyte + Immune: Blood: Monocytes + Immune: Blood: Neutrophils + …) | NOAEL (subchronic, duration: 90 days, oral, gavage, M, Sprague-Dawley, Other Systems: Blood: Potassium (K) + Other Systems: Tooth: Tooth Discoloration + Other Systems: Tooth: Tooth Discoloration, Recovery + …)
25 mg/kg-day: NEL [2] | NEL [4] | NEL [7] | NOAEL [8] | NOAEL [9] | NOAEL [10] | NOAEL [12] | LEL [13] | NEL [16] | LEL [17] | NEL [18] | NEL [19] | LEL [20] | LOAEL (subchronic, duration: 90 days, oral, gavage, F, Crl:CD(SD), Cardiovascular: Heart: Heart Weight, Absolute + Cardiovascular: Heart: Heart Weight, Relative + Endocrine: Adrenal: Adrenal Gland Weight, …) | NOAEL [22] | LOAEL [23] | LEL [24] | LOAEL [27] | LEL [28] | LEL [29] | NEL [31] | NEL [32] | LOAEL (subchronic, duration: 90 days, oral, gavage, M, Crl:CD(SD), Cardiovascular: Heart: Heart Weight, Absolute + Cardiovascular: Heart: Heart Weight, Relative + Endocrine: Adrenal: Adrenal Gland Weight, …) | NOAEL [34] | LOAEL [35] | LOAEL [36]
1490 mg/m3: NEL (short-term, duration: 4 weeks, inhalation, F, Crl:CD(SD), Adrenal: Adrenal Gland Weight, Absolute + Adrenal: Adrenal Gland Weight, Absolute, Recovery + Adrenal: Adrenal Gland Weight, Relative + …) | LEL (short-term, duration: 4 weeks, inhalation, F, Crl:CD(SD), Blood: Hematocrit (HCT) + Blood: Hemoglobin (HGB) + Blood: Red Blood Cell (RBC) + Bone: Decalcification, Trabeculae (4 wk) + Bone: …) | NEL (short-term, duration: 4 weeks, inhalation, M, Crl:CD(SD), Adrenal: Adrenal Gland Weight, Absolute + Adrenal: Adrenal Gland Weight, Absolute, Recovery + Adrenal: Adrenal Gland Weight, Relative + …) | LEL (short-term, duration: 4 weeks, inhalation, M, Crl:CD(SD), Bone: Decalcification, Trabeculae (4 wk) + Bone: Decalcification, Trabeculae (8 wk) + Kidney: Total Protein (TP), Urine + Liver: Albumin (A…)
149 mg/m3: NEL (short-term, duration: 4 weeks, inhalation, F, Crl:CD(SD), Blood: Hematocrit (HCT) + Blood: Hemoglobin (HGB) + Blood: Red Blood Cell (RBC) + Liver: Alanine Aminotransferase (ALT), Blood + Liver: …) | NEL (short-term, duration: 4 weeks, inhalation, M, Crl:CD(SD), Kidney: Total Protein (TP), Urine + Liver: Albumin (A), Blood + Liver: Liver Weight, Absolute + Liver: Liver Weight, Relative + Liver: Liver…)
75 mg/kg-day: NOAEL [11] | NEL [14] | NEL [15] | LEL [16]
5 mg/kg-day: NEL [13] | NEL [17] | NEL [20] | NOAEL [23] | NEL [24] | NOAEL [27] | NEL [28] | NEL [29] | NOAEL [35] | LOAEL (subchronic, duration: 90 days, oral, gavage, M, Crl:CD(SD), Reproductive: Epididymis: Epididymis Weight, Absolute + Reproductive: Epididymis: Epididymis Weight, Relative + Reproductive: Testis: Testis…) | NOAEL [36]
125 mg/kg-day: NEL [1] | LEL [2] | NEL [3] | LEL [4] | NEL [5] | NEL [6] | LEL [7] | LOAEL [8] | LOAEL [9] | LOAEL [10] | LOAEL (reproduction developmental, oral, gavage, M, Sprague-Dawley, generation: P0, P0: Endocrine: Pituitary: Pituitary Gland Histopathology + P0: Endocrine: Pituitary: Pituitary Gland Weight, Absolute + P0: Endocrine: …) | LOAEL [12] | NEL (short-term, duration: 28 days, oral, gavage, F, Crl:CD(SD), Teeth: Teeth, Mottled) | NEL (short-term, duration: 28 days, oral, gavage, M, Crl:CD(SD), Liver: Liver Weight, Relative + Liver: Liver, Enlarged) | LEL [18] | LEL [19] | NEL [21] | LOAEL [22] | NOAEL [25] | NEL [26] | NEL [30] | LEL [31] | LEL [32] | NEL [33] | LOAEL [34]
125 mg/kg-day and 250 mg/kg-day: LOAEL (subchronic, duration: 90 days, oral, gavage, M, Crl:CD(SD), Other Systems: Eye: Ophthalmology + Other Systems: Nasal Cavity: Nasal Cavity/Tubinates Inflammation, Chronic, Focal/Multifocal + Other …)
225 mg/kg-day: LOAEL [11] | NOAEL (reproduction developmental, oral, gavage, M, Crl:CD(SD), generation: P0, P0: Nervous: CNS: Latency to Mount) | LEL [14] | LEL [15]

— EPA's ToxValDB 9.5
